Common to all, as to assay: NCI tumour cell line growth inhibition, 48 h
The test system of test [1] is CCRF-CEM leukemia.
The subject of test [2] is HCC-2998 colon.
In test [3] the test system is CAKI-1 renal.
The test system of test [4] is SR leukemia.
Test [5] relates to NCI-H226 lung.
The subject of test [6] is LOX IMVI melanoma.
Test [7] relates to TK-10 renal.
The test system of test [8] is COLO 205 colon.
The test system of test [9] is UACC-257 melanoma.
For test [10], the system named is MALME-3M melanoma.

Our source for the TGI and GI50 values is PubChem BioAssay (NCI).

Values joined by “and” are separate entries in the source; they are usually repeats but may differ in a detail not shown here. Equal entries are not always repeated.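 How tested: cells in 96-well plates exposed to compound for 48 hours at five concentrations. The concentration for 50% growth inhibition is given as GI50. The concentration for full growth arrest is given as TGI.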

As to `COC(=O)CCC(=O)N1C/C(=C\c2ccccc2)C(=O)/C(=C/c2ccccc2)C1`, the TGI was more than 100 µM in [1]; 3.06 µM in [2]; 3.22 µM in [3]; 12.2 µM in test [4]; 13.5 µM in test [5]; 1.59 µM in test [6]. Also, the TGI in [7] amounted to 13.2 µM; in test [8] it was 3.67 µM; in test [9], 4.11 µM; in [10] it was 4.62 µM.
Consider `COc1cc(-n2cc(-c3ccccc3)[nH]c2=O)cc(OC)c1OC`, for which the GI50 in test [1] was more than 100 µM; in test [2] it was more than 100 µM; in [3], 37.8 µM; in test [4], more than 100 µM; in [5], 57.4 µM; in [6], more than 100 µM. Also, the GI50 in test [7] was 39.6 µM; in [8], more than 100 µM; in test [10] it was 33.7 µM. Also, the TGI in test [1], in [2], in test [3], in test [4], in test [5] and in test [6] was more than 100 µM throughout. For the same compound, the TGI in test [7], in [8] and in test [10] was more than 100 µM each time.
Regarding `CC(C)(C)C1CCC2c3c([nH]c4ncccc34)C3C(=O)N(c4ccccc4)C(=O)C3C2C1` (stereo not given), the TGI in [1], in test [2], in [3], in test [4], in [5] and in test [6] was more than 100 µM throughout. Besides, the TGI in test [7], in [8], in test [9] and in test [10] was more than 100 µM in each case.
Turning to `Cc1cccc(C)c1NC(=O)CCc1nnc2s/c(=C\c3ccc(N(C)C)cc3)c(=O)n12`, the TGI in [1], in [2], in test [3], in [4], in test [5] and in [6] was more than 100 µM in each case. Besides, the TGI in test [7], in test [8], in [9] and in [10] was more than 100 µM in each case.
With `COc1cccc(/C=C/c2nc3c(cnn3-c3ccccc3)c(=O)[nH]2)c1`, the GI50 in test [1] was more than 100 µM; in test [2], more than 100 µM; in test [3] it was more than 45.6 µM; in test [5] it was more than 100 µM; in test [6], more than 100 µM; in test [7], more than 28.2 µM. Also, the GI50 in [8], in test [9] and in [10] was more than 100 µM in each case. For the same compound, the TGI in test [1], in test [2], in test [3], in [4], in test [5] and in test [6] was more than 100 µM throughout. In addition, the TGI in [7], in [8], in test [9] and in [10] was more than 100 µM in each case.
Consider `O=[N+]([O-])c1cccc(-c2nc(-c3ccc(Cl)cc3Cl)cn2-c2ccccc2)c1`, for which the TGI in test [1] was more than 18.7 µM; in test [2], more than 17.6 µM; in [3] it was 1.21 µM; in [4], more than 33.3 µM; in test [5], more than 33.3 µM; in test [6], more than 30.7 µM. Moreover, the TGI in test [7] came to 1.13 µM; in [8], 0.987 µM; in [9] it was 10.7 µM; in [10], 2.11 µM. The GI50 in test [2] is 2.99 µM; in test [3] it was 0.477 µM; in test [4] it was 1.24 µM; in test [5], 3.17 µM; in test [6], 2.98 µM; in [7] it was 0.612 µM. In addition, the figures for the GI50 in test [8], in [9] and in [10] were 0.485 µM, 1.41 µM and 0.704 µM, respectively.
Take `Nc1ccccc1C#C/C=C\C#CC#C/C=C\C#Cc1ccccc1N`: the GI50 in [1] is 0.0892 µM; in test [2], 2.25 µM; in [3] it was 2.74 µM; in test [4], 1.42 µM; in test [5] it was 3.56 µM; in test [6], 1.75 µM. The GI50 in [7] is 15.3 µM; in test [8] it was 13.5 µM; in [9] it was 8.96 µM; in test [10], 11.7 µM. For the same compound, the TGI in test [1] is 16 µM; in test [2] it was 8.03 µM; in [3], 11.8 µM; in test [4], 7 µM; in test [5] it was 27.2 µM; in test [6], 11.6 µM. The TGI in test [7] is more than 100 µM; in test [8], 35.9 µM; in [9], 32.4 µM; in test [10], 67.1 µM.
Turning to `CCOC(=O)Nc1nc2ccccc2[nH]1`, the GI50 in test [1] is 3.6 µM and 4.41 µM; in test [2] it was 19.8 µM and 95.3 µM; in test [3] it was 3.84 µM and 3.73 µM; in test [4], 2.64 µM and 1.1 µM; in [6] it was 7.1 µM and 6.82 µM; in test [7] it was 11.3 µM and > 27 µM. The GI50 in [8] was 3.62 µM and 3.27 µM; in test [9], 3.77 µM; in test [10], 5.18 µM. Besides, the TGI in test [1], in test [2], in test [3], in [4], in test [5] and in test [6] was more than 100 µM in each case. In addition, the TGI in [7] was more than 100 µM; in test [8], 15.2 µM and > 32.6 µM; in [9] it was more than 100 µM; in [10] it was more than 100 µM.
Take `CC(C)c1ccc(C2NC(=S)NC3=C2c2ccccc2C3=O)cc1` (stereo not given): the TGI is more than 68 µM in test [1]; more than 51.7 µM in test [2]; more than 58.5 µM in [3]; 30.6 µM in test [4]; more than 64.6 µM in test [5]; 35.1 µM in test [6]. The TGI was more than 57.1 µM in test [7], more than 59.2 µM in [8], more than 58.7 µM in test [9] and more than 62.9 µM in test [10].
